Activity calls are given as the source filed them. The calls are words filed in the database; no cut-off is given here.
Experiments:
[1] = target: Amyloid-beta precursor protein (Homo sapiens, UniProt P05067); assay: Aβ42 inhibition assay
[2] = test system: Tyrosine-protein kinase ABL1 (Homo sapiens), P00519 [E255K]; conditions: Compound concentration 1000.0 nM
[3] = test system: Tyrosine-protein kinase ABL1 (Homo sapiens), P00519 [F317I]; conditions: Compound concentration 1000.0 nM
[4] = test system: Tyrosine-protein kinase ABL1 (Homo sapiens), P00519 [H396P]; conditions: Compound concentration 1000.0 nM
[5] = test system: Tyrosine-protein kinase ABL1 (Homo sapiens), P00519 [Q252H]; conditions: Compound concentration 1000.0 nM
[6] = target: Protein-tyrosine kinase 6 (Homo sapiens) (UniProt Q13882); conditions: Compound concentration 1000.0 nM
[7] = target: Cyclin-dependent kinase 11B (Homo sapiens) (UniProt P21127); conditions: Compound concentration 1000.0 nM
[8] = target: Serine/threonine-protein kinase Chk2 (Homo sapiens) (UniProt O96017); conditions: Compound concentration 1000.0 nM
[9] = target: Death-associated protein kinase 1 (Homo sapiens) (UniProt P53355); conditions: Compound concentration 1000.0 nM
[10] = target: Serine/threonine-protein kinase DCLK1 (Homo sapiens) (UniProt O15075); conditions: Compound concentration 1000.0 nM
[11] = test system: Epidermal growth factor receptor (Homo sapiens), P00533 [UNDEFINED MUTATION]; conditions: Compound concentration 1000.0 nM
[12] = test system: Epidermal growth factor receptor (Homo sapiens), P00533 [L861Q]; conditions: Compound concentration 1000.0 nM
[13] = target: Mitogen-activated protein kinase 1 (Homo sapiens) (UniProt P28482); conditions: Compound concentration 1000.0 nM
[14] = target: Tyrosine-protein kinase Fes/Fps (Homo sapiens) (UniProt P07332); conditions: Compound concentration 1000.0 nM
[15] = target: Fibroblast growth factor receptor 4 (Homo sapiens) (UniProt P22455); conditions: Compound concentration 1000.0 nM
[16] = test system: Receptor-type tyrosine-protein kinase FLT3 (Homo sapiens), P36888 [D835V]; conditions: Compound concentration 1000.0 nM
[17] = target: Rhodopsin kinase GRK1 (Homo sapiens) (UniProt Q15835); conditions: Compound concentration 1000.0 nM
[18] = target: G protein-coupled receptor kinase 4 (Homo sapiens) (UniProt P32298); conditions: Compound concentration 1000.0 nM
[19] = target: Glycogen synthase kinase-3 beta (Homo sapiens) (UniProt P49841); conditions: Compound concentration 1000.0 nM
[20] = target: Interleukin-1 receptor-associated kinase 3 (Homo sapiens) (UniProt Q9Y616); conditions: Compound concentration 1000.0 nM
[21] = target: Interleukin-1 receptor-associated kinase 4 (Homo sapiens) (UniProt Q9NWZ3); conditions: Compound concentration 1000.0 nM
[22] = target: Tyrosine-protein kinase JAK2 (Homo sapiens) (UniProt O60674); conditions: Compound concentration 1000.0 nM
[23] = target: Mast/stem cell growth factor receptor Kit (Homo sapiens) (UniProt P10721); conditions: Compound concentration 1000.0 nM
[24] = test system: Mast/stem cell growth factor receptor Kit (Homo sapiens), P10721 [V559D]; conditions: Compound concentration 1000.0 nM
[25] = target: Serine/threonine-protein kinase STK11 (Homo sapiens) (UniProt Q15831); conditions: Compound concentration 1000.0 nM
[26] = target: Mitogen-activated protein kinase kinase kinase 4 (Homo sapiens) (UniProt Q9Y6R4); conditions: Compound concentration 1000.0 nM
[27] = target: Dual specificity mitogen-activated protein kinase kinase 5 (Homo sapiens) (UniProt Q13163); conditions: Compound concentration 1000.0 nM
[28] = target: Dual specificity mitogen-activated protein kinase kinase 7 (Homo sapiens) (UniProt O14733); conditions: Compound concentration 1000.0 nM
[29] = target: MAP kinase-interacting serine/threonine-protein kinase 2 (Homo sapiens) (UniProt Q9HBH9); conditions: Compound concentration 1000.0 nM
[30] = target: Serine/threonine-protein kinase 26 (Homo sapiens) (UniProt Q9P289); conditions: Compound concentration 1000.0 nM
[31] = target: Serine/threonine-protein kinase Nek10 (Homo sapiens) (UniProt Q6ZWH5); conditions: Compound concentration 1000.0 nM
[32] = target: Serine/threonine-protein kinase Nek11 (Homo sapiens) (UniProt Q8NG66); conditions: Compound concentration 1000.0 nM
[33] = test system: Phosphatidylinositol 4,5-bisphosphate 3-kinase catalytic subunit alpha isoform (Homo sapiens), P42336 [E542K]; conditions: Compound concentration 1000.0 nM
[34] = target: Phosphatidylinositol 4,5-bisphosphate 3-kinase catalytic subunit gamma isoform (Homo sapiens) (UniProt P48736); conditions: Compound concentration 1000.0 nM
[35] = target: Serine/threonine-protein kinase pim-2 (Homo sapiens) (UniProt Q9P1W9); conditions: Compound concentration 1000.0 nM
[36] = target: Serine/threonine-protein kinase PknB (Mycobacterium tuberculosis) (UniProt P9WI81); conditions: Compound concentration 1000.0 nM
[37] = target: Serine/threonine-protein kinase PLK2 (Homo sapiens) (UniProt Q9NYY3); conditions: Compound concentration 1000.0 nM
[38] = target: Serine/threonine-protein kinase PRP4 homolog (Homo sapiens) (UniProt Q13523); conditions: Compound concentration 1000.0 nM
[39] = target: Proto-oncogene tyrosine-protein kinase receptor Ret (Homo sapiens) (UniProt P07949); conditions: Compound concentration 1000.0 nM
[40] = target: Serine/threonine-protein kinase Sgk2 (Homo sapiens) (UniProt Q9HBY8); conditions: Compound concentration 1000.0 nM
[41] = target: SRSF protein kinase 1 (Homo sapiens) (UniProt Q96SB4); conditions: Compound concentration 1000.0 nM
[42] = target: SRSF protein kinase 3 (Homo sapiens) (UniProt Q9UPE1); conditions: Compound concentration 1000.0 nM
[43] = target: Serine/threonine-protein kinase 16 (Homo sapiens) (UniProt O75716); conditions: Compound concentration 1000.0 nM
[44] = target: Serine/threonine-protein kinase 32B (Homo sapiens) (UniProt Q9NY57); conditions: Compound concentration 1000.0 nM
[45] = target: 5-hydroxytryptamine receptor 1D (Homo sapiens, UniProt P28221); assay: GPCRScan assay: inhibition of 5-HT1D; parameters: radioligand conc. used [nm] 1.0 – 2.0, parental cells HEKT

Sequence of Dual specificity mitogen-activated protein kinase kinase 5 (Homo sapiens) (Q13163 whole entry): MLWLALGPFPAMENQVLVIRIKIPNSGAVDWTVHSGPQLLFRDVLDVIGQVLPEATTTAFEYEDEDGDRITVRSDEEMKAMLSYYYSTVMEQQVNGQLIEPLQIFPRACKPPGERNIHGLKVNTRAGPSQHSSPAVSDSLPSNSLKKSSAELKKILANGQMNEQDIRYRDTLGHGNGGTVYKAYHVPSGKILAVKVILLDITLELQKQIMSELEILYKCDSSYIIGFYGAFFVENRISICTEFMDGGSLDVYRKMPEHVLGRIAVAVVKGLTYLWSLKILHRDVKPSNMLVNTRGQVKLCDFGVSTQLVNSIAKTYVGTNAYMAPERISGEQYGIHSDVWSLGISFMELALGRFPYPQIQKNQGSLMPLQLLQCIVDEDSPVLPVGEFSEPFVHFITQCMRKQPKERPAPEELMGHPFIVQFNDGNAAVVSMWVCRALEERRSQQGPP
Sequence of Amyloid-beta precursor protein (P05067 whole entry): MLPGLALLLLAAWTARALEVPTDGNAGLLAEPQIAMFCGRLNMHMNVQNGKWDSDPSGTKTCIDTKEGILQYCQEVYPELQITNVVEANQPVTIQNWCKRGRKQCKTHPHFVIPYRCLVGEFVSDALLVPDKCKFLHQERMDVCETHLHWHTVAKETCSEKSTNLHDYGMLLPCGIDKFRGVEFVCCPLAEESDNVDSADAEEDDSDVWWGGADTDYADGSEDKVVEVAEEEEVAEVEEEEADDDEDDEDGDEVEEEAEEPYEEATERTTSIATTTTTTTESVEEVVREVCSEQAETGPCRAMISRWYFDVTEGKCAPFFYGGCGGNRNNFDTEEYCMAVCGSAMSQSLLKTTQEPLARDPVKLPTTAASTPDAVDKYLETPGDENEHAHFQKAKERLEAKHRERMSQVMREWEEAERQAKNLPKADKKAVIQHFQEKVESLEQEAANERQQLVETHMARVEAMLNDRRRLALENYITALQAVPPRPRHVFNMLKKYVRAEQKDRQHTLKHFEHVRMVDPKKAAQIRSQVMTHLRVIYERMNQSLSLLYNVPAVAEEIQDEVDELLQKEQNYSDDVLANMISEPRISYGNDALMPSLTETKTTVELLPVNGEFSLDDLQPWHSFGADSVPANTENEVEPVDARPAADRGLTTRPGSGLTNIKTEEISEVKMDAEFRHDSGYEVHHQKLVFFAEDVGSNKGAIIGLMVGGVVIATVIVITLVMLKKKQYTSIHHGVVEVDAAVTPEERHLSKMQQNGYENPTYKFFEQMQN
Sequence of Serine/threonine-protein kinase STK11 (Homo sapiens) (Q15831 whole entry): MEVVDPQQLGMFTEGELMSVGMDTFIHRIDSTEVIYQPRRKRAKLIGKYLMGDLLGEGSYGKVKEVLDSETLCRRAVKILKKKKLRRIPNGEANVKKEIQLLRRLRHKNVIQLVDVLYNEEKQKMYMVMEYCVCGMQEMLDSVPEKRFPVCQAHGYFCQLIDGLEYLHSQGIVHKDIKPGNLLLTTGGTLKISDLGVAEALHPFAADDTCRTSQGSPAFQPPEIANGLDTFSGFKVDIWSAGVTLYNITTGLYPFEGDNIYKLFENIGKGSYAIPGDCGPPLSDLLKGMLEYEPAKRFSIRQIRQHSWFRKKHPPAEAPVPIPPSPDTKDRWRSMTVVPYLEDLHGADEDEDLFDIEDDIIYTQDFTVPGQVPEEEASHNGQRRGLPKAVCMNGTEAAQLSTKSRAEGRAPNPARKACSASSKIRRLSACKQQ
Sequence of Dual specificity mitogen-activated protein kinase kinase 7 (Homo sapiens) (O14733 whole entry): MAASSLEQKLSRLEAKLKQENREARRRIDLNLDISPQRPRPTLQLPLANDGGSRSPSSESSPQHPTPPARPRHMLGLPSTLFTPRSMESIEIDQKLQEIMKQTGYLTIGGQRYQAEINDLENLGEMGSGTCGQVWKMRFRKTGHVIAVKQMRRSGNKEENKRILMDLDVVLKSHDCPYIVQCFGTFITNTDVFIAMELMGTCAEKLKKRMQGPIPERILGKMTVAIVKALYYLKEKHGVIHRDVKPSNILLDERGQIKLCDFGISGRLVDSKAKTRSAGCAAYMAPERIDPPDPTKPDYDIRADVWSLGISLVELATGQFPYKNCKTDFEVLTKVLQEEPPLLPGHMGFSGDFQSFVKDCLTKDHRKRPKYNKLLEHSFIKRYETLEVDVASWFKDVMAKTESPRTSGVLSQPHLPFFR
Sequence of Phosphatidylinositol 4,5-bisphosphate 3-kinase catalytic subunit alpha isoform (Homo sapiens), P42336 [E542K] (P42336 whole entry E542K, canonical isoform): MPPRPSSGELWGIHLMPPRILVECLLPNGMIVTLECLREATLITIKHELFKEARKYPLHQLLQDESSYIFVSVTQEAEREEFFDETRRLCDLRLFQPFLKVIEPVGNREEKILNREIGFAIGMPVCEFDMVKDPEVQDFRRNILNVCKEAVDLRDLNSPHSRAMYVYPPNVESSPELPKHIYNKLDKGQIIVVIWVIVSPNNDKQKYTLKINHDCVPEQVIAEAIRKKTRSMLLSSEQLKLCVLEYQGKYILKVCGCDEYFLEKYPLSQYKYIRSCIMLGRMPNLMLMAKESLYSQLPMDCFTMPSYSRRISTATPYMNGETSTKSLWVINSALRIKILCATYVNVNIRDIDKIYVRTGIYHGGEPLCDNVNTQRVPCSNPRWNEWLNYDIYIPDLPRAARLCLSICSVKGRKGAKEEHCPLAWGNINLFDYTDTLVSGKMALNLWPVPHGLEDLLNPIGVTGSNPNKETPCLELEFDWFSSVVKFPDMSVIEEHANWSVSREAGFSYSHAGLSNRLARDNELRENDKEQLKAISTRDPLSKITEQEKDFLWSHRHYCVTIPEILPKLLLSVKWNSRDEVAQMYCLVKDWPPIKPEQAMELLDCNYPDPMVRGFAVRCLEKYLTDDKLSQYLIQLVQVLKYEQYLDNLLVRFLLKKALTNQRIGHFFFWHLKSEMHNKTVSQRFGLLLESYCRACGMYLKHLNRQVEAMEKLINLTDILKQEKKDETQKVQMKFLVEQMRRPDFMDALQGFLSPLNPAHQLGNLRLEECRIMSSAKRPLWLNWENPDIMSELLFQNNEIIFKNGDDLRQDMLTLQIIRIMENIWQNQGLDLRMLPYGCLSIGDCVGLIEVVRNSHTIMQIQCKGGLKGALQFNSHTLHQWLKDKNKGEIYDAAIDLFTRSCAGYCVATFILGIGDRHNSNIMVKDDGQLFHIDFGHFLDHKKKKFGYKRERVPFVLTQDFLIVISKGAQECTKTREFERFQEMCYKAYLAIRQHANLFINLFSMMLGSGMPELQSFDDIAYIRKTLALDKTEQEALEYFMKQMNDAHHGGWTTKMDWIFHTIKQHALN
Sequence of Interleukin-1 receptor-associated kinase 3 (Homo sapiens) (Q9Y616 whole entry): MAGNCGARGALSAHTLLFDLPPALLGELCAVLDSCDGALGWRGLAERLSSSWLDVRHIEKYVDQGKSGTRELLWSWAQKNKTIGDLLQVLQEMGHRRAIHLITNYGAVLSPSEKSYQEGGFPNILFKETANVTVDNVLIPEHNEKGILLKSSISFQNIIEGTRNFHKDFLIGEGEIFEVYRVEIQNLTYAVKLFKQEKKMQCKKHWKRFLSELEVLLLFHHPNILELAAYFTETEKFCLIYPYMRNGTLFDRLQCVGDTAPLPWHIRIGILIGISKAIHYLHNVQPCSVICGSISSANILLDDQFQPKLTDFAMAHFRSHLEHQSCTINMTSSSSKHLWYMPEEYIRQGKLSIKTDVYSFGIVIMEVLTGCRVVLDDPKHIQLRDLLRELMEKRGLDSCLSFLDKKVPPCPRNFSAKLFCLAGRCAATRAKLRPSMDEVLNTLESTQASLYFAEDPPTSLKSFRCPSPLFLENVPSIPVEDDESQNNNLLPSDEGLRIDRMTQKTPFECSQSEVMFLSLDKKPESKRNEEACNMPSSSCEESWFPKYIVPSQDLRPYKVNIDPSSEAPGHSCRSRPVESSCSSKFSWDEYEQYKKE
Sequence of Serine/threonine-protein kinase 32B (Homo sapiens) (Q9NY57 whole entry): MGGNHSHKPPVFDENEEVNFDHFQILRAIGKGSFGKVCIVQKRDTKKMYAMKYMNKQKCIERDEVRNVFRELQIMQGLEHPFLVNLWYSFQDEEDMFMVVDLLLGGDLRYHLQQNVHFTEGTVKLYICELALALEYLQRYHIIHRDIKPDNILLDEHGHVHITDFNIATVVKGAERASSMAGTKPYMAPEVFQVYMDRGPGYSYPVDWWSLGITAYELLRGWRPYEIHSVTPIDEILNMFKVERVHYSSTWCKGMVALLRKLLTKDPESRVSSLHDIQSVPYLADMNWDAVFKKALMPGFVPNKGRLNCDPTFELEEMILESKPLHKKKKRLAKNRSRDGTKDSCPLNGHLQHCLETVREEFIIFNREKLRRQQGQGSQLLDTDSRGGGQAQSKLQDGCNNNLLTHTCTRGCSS
Sequence of Protein-tyrosine kinase 6 (Homo sapiens) (Q13882 whole entry, looked up): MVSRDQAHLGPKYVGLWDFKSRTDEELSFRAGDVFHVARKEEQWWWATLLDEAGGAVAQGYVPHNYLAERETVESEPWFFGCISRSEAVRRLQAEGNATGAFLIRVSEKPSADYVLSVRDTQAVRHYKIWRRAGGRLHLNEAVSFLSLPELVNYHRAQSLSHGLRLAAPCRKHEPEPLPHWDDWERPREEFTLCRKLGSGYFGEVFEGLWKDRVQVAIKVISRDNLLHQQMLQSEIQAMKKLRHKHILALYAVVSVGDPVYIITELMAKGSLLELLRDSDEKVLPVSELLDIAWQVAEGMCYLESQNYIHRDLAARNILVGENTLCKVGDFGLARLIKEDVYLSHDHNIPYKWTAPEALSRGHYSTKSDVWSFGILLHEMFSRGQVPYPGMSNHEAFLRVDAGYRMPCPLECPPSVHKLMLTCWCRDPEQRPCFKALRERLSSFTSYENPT
Sequence of Serine/threonine-protein kinase pim-2 (Homo sapiens) (Q9P1W9 whole entry, looked up): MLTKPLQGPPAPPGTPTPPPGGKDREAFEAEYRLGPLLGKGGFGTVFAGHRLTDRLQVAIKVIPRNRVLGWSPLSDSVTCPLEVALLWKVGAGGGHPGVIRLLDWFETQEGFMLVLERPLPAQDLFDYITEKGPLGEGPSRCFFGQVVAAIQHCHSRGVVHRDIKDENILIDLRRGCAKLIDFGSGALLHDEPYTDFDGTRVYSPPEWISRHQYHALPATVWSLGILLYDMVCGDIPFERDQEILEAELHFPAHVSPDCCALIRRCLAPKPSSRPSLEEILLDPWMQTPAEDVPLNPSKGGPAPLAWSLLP

`O=S(=O)(NC1CCC(c2cc(F)ccc2F)(S(=O)(=O)c2ccc(Cl)cc2)CC1)C(F)(F)F` (stereo not given) [MRK-560] was tested. Which IC50 [1] did it give?
The IC50 was < 0.5 nM (active).

And the residual activity [2]?
The residual activity was 100%.

What about the residual activity [3] of the same compound?
The residual activity was 100%.

And the residual activity [4]?
The residual activity was 100%.

What about the residual activity [5] of the same compound?
Its residual activity is 84%.

And the residual activity [6]?
Its residual activity is 95%.

And the residual activity [7]?
Its residual activity is 82%.

And the residual activity [8]?
The residual activity was 100%.

What about the residual activity [9] of the same compound?
Its residual activity is 95%.

What about the residual activity [10] of the same compound?
The residual activity was 100%.

What about the residual activity [11] of the same compound?
The residual activity was 100%.

And the residual activity [12]?
Its residual activity is 100%.

What about the residual activity [13] of the same compound?
Its residual activity is 100%.

What about the residual activity [14] of the same compound?
The residual activity was 88%.

What about the residual activity [15] of the same compound?
Its residual activity is 100%.

And the residual activity [16]?
The residual activity was 82%.

What about the residual activity [17] of the same compound?
The residual activity was 84%.

And the residual activity [18]?
The residual activity was 100%.

What about the residual activity [19] of the same compound?
Its residual activity is 100%.

And the residual activity [20]?
The residual activity was 98%.

And the residual activity [21]?
The residual activity was 97%.

What about the residual activity [22] of the same compound?
Its residual activity is 83%.

And the residual activity [23]?
Its residual activity is 100%.

And the residual activity [24]?
The residual activity was 95%.

What about the residual activity [25] of the same compound?
The residual activity was 100%.

And the residual activity [26]?
The residual activity was 99%.

What about the residual activity [27] of the same compound?
Its residual activity is 52%.

What about the residual activity [28] of the same compound?
The residual activity was 100%.

What about the residual activity [29] of the same compound?
The residual activity was 57%.

What about the residual activity [30] of the same compound?
The residual activity was 85%.

And the residual activity [31]?
Its residual activity is 100%.

What about the residual activity [32] of the same compound?
Its residual activity is 100%.

What about the residual activity [33] of the same compound?
Its residual activity is 100%.

What about the residual activity [34] of the same compound?
Its residual activity is 100%.

And the residual activity [35]?
Its residual activity is 100%.

What about the residual activity [36] of the same compound?
Its residual activity is 91%.

And the residual activity [37]?
The residual activity was 100%.

And the residual activity [38]?
The residual activity was 100%.

And the residual activity [39]?
The residual activity was 92%.

And the residual activity [40]?
The residual activity was 93%.

What about the residual activity [41] of the same compound?
Its residual activity is 100%.

And the residual activity [42]?
Its residual activity is 100%.

And the residual activity [43]?
Its residual activity is 97%.

And the residual activity [44]?
The residual activity was 100%.

How did the Ki [45] turn out when `CC(C)(C)OC(=O)N1CCCC1CNC1CCC(c2cc(F)ccc2F)(S(=O)(=O)c2ccc(Cl)cc2)CC1` (stereo not given) [GSI-NC] was run?
The Ki was 234 nM.

From ChEMBL document CHEMBL4507288 (2021)
